How the values were obtained:
[1] = test system: Draining lymph node cells from mice induced to develop EAE; test: Immune responses of mice with established EAE treated from day 13 (DLN cells to MOG35-55, cell subsets); assay type: in vivo, C57BL/6 mice
From the text: (§1) Acute EAE was induced in C57BL/6 mice by immunizing the animals against the pathogenic myelin oligodendrocyte glycoprotein (MOG) peptide (amino acids 35-55). Mice were left untreated until disease symptoms were apparent (score 1-2) at around day 12. […] Mice were monitored daily in a blinded fashion for clinical symptoms (paralysis). Tissues (brain, spinal cord, DLNs) were collected in order to perform histological evaluation (staining with H&E on brain and spinal cord sections) and ex vivo cultures for measurement of T cell responses and cytokine release.

[2] = test system: Lymph node (LN) cells from unprimed DO11.10 TCR Tg mice; test: OVA-stimulated lymph node cell culture, T cell proliferation; assay type: cell-based
[3] = test system: ongoing EAE in recipient mice; test: Adoptive transfer of CD4+ T cells from treated EAE donors into recipients with ongoing EAE; assay type: in vivo
[4] = test system: Draining lymph node cells from mice induced to develop EAE; test: Ex vivo cytokine secretion of draining lymph node cells to MOG35-55, mice treated from EAE onset; assay type: in vivo, C57BL/6 mice; conditions: treatment from EAE onset
Protocol: Tests were also carried out to discover whether DHEA and its spiro-analogs were protective after the onset of experimental autoimmune encephalomyelitis (EAE). For these tests, acute EAE was induced in C57BL/6 mice, as previously described. […] Mice were monitored daily in a blinded fashion for clinical symptoms (paralysis). Tissues (brain, spinal cord, DLNs) were collected in order to perform histological evaluation (staining with H&E on brain and spinal cord sections) and ex vivo cultures for measurement of T cell responses and cytokine release.
Also tested were the cytokine secretion of lymphoid cells (T cells) to MOG35-55 peptide from the mice that had been induced to develop EAE.

[5] = test system: Naive CD4+ T cells; test: Naive CD4+ T cells under Th17 cell polarizing conditions; assay type: cell-based
[6] = test system: EAE in C57BL/6 Rag−/− recipients; test: Adoptive transfer of CD4+ T cells from treated EAE donors into C57BL/6 Rag-/- recipients; assay type: in vivo, C57BL/6 Rag−/− mice
[7] = test system: purified CD4+ T cells from unprimed BALB/c mice; test: Purified CD4+ T cells stimulated with α-CD3/α-CD28; assay type: cell-based; conditions: non antigen-specific stimulation; FIG. 3
From the text: (§2) The decreased proliferative response of CD4^+ T cells was not due to increased cell death as evident by similar numbers of CD4^+ 7AAD^− cells in all cultures after flow-cytometric analysis (FIG. 4).

[8] = test system: Draining lymph node cells from mice induced to develop EAE; test: Ex vivo response of draining lymph node cells to MOG35-55, mice treated from EAE induction; assay type: in vivo, C57BL/6 mice; conditions: treatment from EAE induction
From the text: as §1, with “them” for “the animals”, “35-55).” for “35-55). Mice were left untreated until disease symptoms were apparent (score 1-2) at around day 12.”
Also tested were the proliferative response and cytokine secretion of lymphoid cells (T cells) to MOG35-55 peptide from the mice that had been induced to develop EAE. […] In addition, the secretion of the inflammatory cytokine IL-17 was increased (FIG. 9d), but its absolute increase was extremely low in comparison to the IFN-γ increase.

[9] = test system: response to OVA in EAE-induced mice; test: EAE mice treated for 15 days, then immunized with OVA/CFA; assay type: in vivo, C57BL/6 mice
Protocol: Treatment stopped and mice were then injected with OVA/CFA (Complete Freund's Adjuvant).
Instead, the response to a new antigen that the mice are exposed to is enhanced.

[10] = test system: established MOG peptide-induced EAE; test: Established MOG peptide-induced EAE, treatment from day 13; assay type: in vivo, C57BL/6 mice
From the text: as §1

[11] = test system: MOG peptide-induced experimental autoimmune encephalomyelitis (EAE); test: MOG peptide-induced EAE, treatment from the day of EAE induction; assay type: in vivo, C57BL/6 mice
From the text: EAE is an autoimmune condition of the central nervous system (CNS) and results from infiltration of the central nervous system by destructive autoreactive T lymphocytes and subsequent demyelination and axonal and neuronal degeneration.
as §1, with “them” for “the animals”, “35-55).” for “35-55). Mice were left untreated until disease symptoms were apparent (score 1-2) at around day 12.”

[12] = test system: purified CD4+ T cells from unprimed DO11.10 TCR Tg mice; test: Purified CD4+ T cells with mitomycin C-treated splenocytes and OVA peptide 323-339; assay type: cell-based; conditions: OVA peptide 323-339; FIG. 2
From the text: as §2

[13] = test system: naïve CD4+ T cells; test: Naive CD4+ T cells under Treg cell generating conditions; assay type: cell-based
[14] = test system: allergic airway inflammation; test: Mouse model of allergic asthma (OVA/alum sensitization, aerosolized OVA); assay type: in vivo, BALB/c mice
Protocol: BALB/c mice were sensitized with 0.01 mg chicken ovalbumin (OVA) in 0.2 ml alum intraperitoneally on days 0 and 12, and were exposed to aerosolized OVA (5% for 20 min) on days 18-20.

[15] = 2 mg/mouse i.p. daily from EAE induction, in comparison to the control, FIG. 7

For `C[C@]12CC[C@H](O)CC1=CC[C@@H]1[C@@H]2CC[C@]2(C)C(=O)CC[C@@H]12` [DHEA, dehydroepiandrosterone], the “pathogenic immune response and symptoms” value ([1]; overall conclusion, mice with ongoing EAE) was “significantly suppressed”, the “proliferation to MOG35-55 peptide” value ([1]; treatment from day 13, FIG. 19a) was “significantly decreased” and the “amounts of IFN-γ produced” value ([1]; treatment from day 13, FIG. 19b) was “substantially decreased”. The “amounts of IL-17 produced” value ([1]; treatment from day 13, FIG. 19c) was “substantially decreased”, the “IL-10+ Treg cells” value ([1]; treatment from day 13, FIG. 20) was “significantly increased” and the “secretion of IL-10” value ([1]; treatment from day 13, FIG. 19d) was “increased”. The “proliferation of the T cells that respond to the antigen” value ([2]; LN cells stimulated with OVA, vs control RPMI, FIG. 1) was “significantly decreased”, the “effect on T cell responses in general” value ([2]; overall conclusion of Example 1 (FIGS. 1-4)) was “immunosuppressive effect” and the “mean maximum EAE score” value ([3]; CD4+ T cell transfer into recipients with ongoing EAE, FIGS. 28 and 29) was “significant decrease”. The “proliferation to MOG35-55 ex vivo” value ([3]; DLN cells and splenocytes of recipients, FIG. 30) was “significantly decreased”, the “amounts of IL-10 produced” value ([4]; FIG. 13a) was “greatly increased” and the “secretion of IFN-γ” value ([4]; FIG. 13b) was “substantially decreased”. The “secretion of IL-17” value ([4]; FIG. 13c) was “substantially decreased”, the “number of CD4+ IL-10-secreting T cells” value ([5]; among Th17 differentiating cells, 4 days, FIG. 37) was “significant increase” and the “number of CD4+ IL-17-secreting T cells” value ([5]; and rIL-6, 4 days, vs RPMI, FIG. 36) was “increase”. For the same compound, the “ex vivo proliferation to MOG35-55” value ([6]; DLN cells of Rag−/− recipients, FIG. 33a) was “substantially decreased”, the “production of IFN-γ” value ([6]; DLN cells of Rag−/− recipients, FIG. 33b) was “decreased production” and the “production of IL-17” value ([6]; DLN cells of Rag−/− recipients, FIG. 33c) was “decreased production”. The “EAE scores induced in recipients” value ([6]; after pertussis toxin injections, FIGS. 31 and 32) was “very low EAE scores”, the “effect on α-CD3/α-CD28 stimulated CD4+ T cells” value [7] was “same suppressive effect” and the pathogenic immune response ([8]; overall conclusion) was “significantly suppressed”. For the same compound, the “proliferation to MOG35-55 peptide” value ([8]; FIG. 9a) was “significantly decreased”, the “amounts of IFN-γ produced” value ([8]; FIG. 9b) was “substantially increased” and the “amounts of IL-10 produced” value ([8]; FIG. 9c) was “substantially increased”. The “secretion of IL-17” value ([8]; absolute increase extremely low compared to IFN-γ, FIG. 9d) was “increased”, the “production of IFN-γ” value ([9]; after OVA/CFA immunization) was “increased” and the “T cell response to OVA ex vivo (3H-Thymidine incorporation)” value ([9]; after OVA/CFA immunization, FIG. 40) was “substantially increased”. For the same compound, the “EAE phenotype after end of treatment and OVA/CFA injection” value ([9]; in comparison to control mice) was “stable phenotype without any deterioration”, the “protection from EAE” value ([9]; treated 15 days from shortly after disease onset, then OVA/CFA) was “clearly protected” and the clinical course ([10]; 2 mg/mouse i.p. daily from day 13, FIG. 16) was “significant improvement”. The mean maximum score ([10]; 2 mg/mouse i.p. daily from day 13, FIG. 17) was “decrease”, the “inflammation in the spinal cord” value ([10]; 2 mg/mouse i.p. daily from day 13, FIG. 18) was “decreased inflammation” and the degree of paralysis ([10]; 2 mg/mouse i.p. daily from day 13 until day 26-28) was “significantly decreased”. The “ongoing MOG peptide-induced EAE” value ([10]; overall conclusion, treatment from day 13) was “suppressed”, the degree of paralysis ([11]; 2 mg/mouse i.p. daily from EAE induction until day 26, vs PBS) was “decreased” and the clinical course ([11]; 2 mg/mouse i.p. daily from EAE induction until day 26, FIG. 6) was “improvement”. For the same compound, the mean maximum score ([11]; 2 mg/mouse i.p. daily from EAE induction until day 26, FIG. 7) was “decrease”, the incidence of disease [11, 15] was “low incidence” and the onset of disease [11, 15] was “delayed onset”. The “inflammation in the spinal cord” value ([11]; 2 mg/mouse i.p. daily from EAE induction, H&E, FIG. 8) was “decreased inflammation”, the “protection against MOG peptide-induced EAE” value ([11]; overall conclusion, treatment from EAE induction) was “conferred protection” and the proliferation [12] was “significantly decreased”. For the same compound, the “secretion of IFN-γ” value [12] was “significantly decreased”, the “secretion of IL-2” value [12] was “significantly decreased” and the proliferation ([13]; Treg cell generating conditions, 5 days, FIG. 39) was “increased”. The “number of Foxp3+ Treg cells” value ([13]; rIL-2, with or even without rTGF-β1, 5 days, FIG. 38) was “significant increase”, the “levels of OVA-specific IgE” value ([14]; 2 mg/mouse) was “significantly decreased” and the “levels of OVA-specific IgG1” value ([14]; 2 mg/mouse) was “significantly decreased”. For the same compound, the “levels of OVA-specific IgG2a” value ([14]; 2 mg/mouse) was “significantly decreased”, the “numbers of CD3+CD4+ CD25+ Foxp3+ T cells (T regulatory cells)” value ([14]; 2 mg/mouse) was “substantially increased” and the “numbers of suppressive CD11c+PDCA-1+ plasmacytoid dendritic cells (pDCs)” value ([14]; 2 mg/mouse) was “substantially increased”. The “numbers of eosinophils in the bronchoalveolar lavage (BAL)” value ([14]; 2 mg/mouse on days 0,1,2,12,13,14,18,19,20, vs PBS-treated mice, FIG. 14a) was “significantly decreased”, the “numbers of lymphomononuclear cells in the bronchoalveolar lavage (BAL)” value ([14]; 2 mg/mouse, vs PBS-treated mice, FIG. 14a) was “significantly decreased” and the lung leukocytic infiltration ([14]; 2 mg/mouse, FIG. 14b) was “significantly decreased”. For the same compound, the “OVA-specific T cell proliferation” value ([14]; draining lymph nodes, FIG. 14c) was “significantly decreased” and the “allergic airway inflammation, Th2 responses and B cell responses” value ([14]; overall conclusion of Example 3) was “suppress”.

— US20120225852A1, “USE OF STEROID COMPOUNDS” (priority 2009, published 2012)
